In patent publication US8410109B2, “Pharmaceutical compositions for the prevention and treatment of complex diseases and their delivery by insertable medical devices” (Resverlogix Corp., priority 2005, dated 2013) one finds inhibition data, which are given here for 24 molecules.

Common to all, as to assay type: cell-based
One test concerns MCP-1. Put plainly: MCP-1 ELISA on culture media of TNF-α stimulated HUVECs. The note with it: Homo sapiens, HUVEC, approx. 16 hours. The procedure:
(§1) Compounds were dissolved in DMSO, aliquoted, and stored at −20° C. Cultured human vascular endothelial cells (HUVECs) were seeded in 96-well plates in complete EGM-2 media (˜100 μL/well); cells were plated at ˜2-3×10^5/mL, and were from passage 8 to 12. Cells were incubated overnight. On the following day cells are stimulated with TNF-α (˜1 ng/mL) in the presence or absence of compounds dissolved in DMSO. Triplicate wells were used for each test. To establish a dose curve and an IC50, multiple concentrations in 2- to 5-fold increments were used. Cells were exposed to TNF-α and compounds for approximately 16 hours. The next day, cells were visually examined via light microscopy to score for visual signs of toxicity. Cell culture media was analyzed using an MCP-1 ELISA. Cells were refed (−100 μL/well) with 20% CellTiter 96. Aqueous One Cell Proliferation Solution (Promega), 80% EGM-2 medium. Media optical density (at 490 nm) was determined after 1 hour. Plates were aspirated and cell lysates were prepared and these lysates were tested using a VCAM-1 ELISA.
(§2) In Table 2, a positive result (+) was defined as at least 50% inhibition of the protein levels MCP-1 or VCAM-1, as determined by the ELISA.
(ELISA stands for enzyme-linked immunosorbent assay.)

The test system of another test is VCAM-1. Put plainly: VCAM-1 ELISA on lysates of TNF-α stimulated HUVECs. The note with it: Homo sapiens, HUVEC, approx. 16 hours. The procedure: as §1, §2
In test [1] the test system is Human coronary artery smooth muscle cells (CASMCs). Put plainly: Smooth muscle cell proliferation protocol. The note with it: 72 hours, read-out: % Inhibition of SMC Proliferation. The procedure: Compounds were dissolved in DMSO, aliquoted, and stored at −20° C. Human coronary artery smooth muscle cells (CASMCs) were plated in 96-well plates and were grown in SmBM-2 media. After 1-2 hours, media was aspirated and replaced with serum-free ME/F12 media, except the controls. Cells were incubated for a further 48 hours. Compounds were diluted in DME/F12 containing 10% FBS. Media was aspirated from the plates and compounds in DME/F12 containing 10% FBS. Six wells were used per condition and duplicate plates were used. Cells were incubated for a further 72 hours. Media was aspirated from one set of plates; those cells were refed (˜100 μL/well) with 20% CellTiter 96 Aqueous One Cell Proliferation Solution (Promega), 80% EGM-2 medium. Media optical density (at 490 nm) was determined after 3-4 hours. In the second set of plates, serum-free DME/F12 media (20 μL) was added to each well. Part of the supernatant (50 μL) was removed and placed in an ELISA plate and was stored temporarily at 4° C. The remaining media and cells in the second set of plates were freeze-thawed for four cycles. The lysates and supernatants were mixed and centrifuged. Part of the supernatant (50 μL) was removed and placed in an ELISA plate. The Promega Cytotox assay was performed on the ELISA plates. The ratio of supernatant OD to supernatant+cell lysate OD was determined.
In Table 2, a positive result (+) was defined as at least 40% inhibition of the proliferation of SMC, as determined by the assay.

Where a name gives a salt, the structure may show the parent alone. Some results are limits rather than exact numbers.

As for `CC(C)(Sc1cc(C(C)(C)C)c(O)c(C(C)(C)C)c1)Sc1cc(C(C)(C)C)c(OC(=O)CCC(=O)O)c(C(C)(C)C)c1` [AGI1067, reference compound], the inhibition at 5 µM in the test with MCP-1 (5 uM) turned out to be 60%; in the test on VCAM-1 (5 uM) it was 68%.
On to `O=c1cc(-c2ccc(O)cc2)oc2ncccc12` [EXAMPLE 1, 2-(4-Hydroxy-phenyl)-pyrano[2,3-b]pyridin-4-one], for which the inhibition at 50 µM in test [1] was less than 40%; in the test on MCP-1 it was less than 50%; in the test on VCAM-1, not below 50%.
With `O=c1cc(-c2ccc(O)cc2)oc2cccnc12` [EXAMPLE 2, 2-(4-Hydroxy-phenyl)-pyrano[3,2-b]pyridin-4-one], the values for the inhibition at 50 µM (in test [1]; in the test with MCP-1; in the test on VCAM-1) were not below 40%, less than 50% and less than 50%, respectively.
With `O=c1cc(-c2ccc(O)cn2)oc2ccccc12` [EXAMPLE 11, 2-(5-Hydroxy-pyridin-2-yl)chromen-4-one], the inhibition at 50 µM in test [1] is less than 40%; with MCP-1, less than 50%; with VCAM-1, less than 50%.
Consider `O=c1cc(-c2ccncc2)oc2ccccc12` [EXAMPLE 12, 2-Pyridin-4-yl-chromen-4-one], for which the inhibition at 50 µM is not below 40% in test [1], not below 50% in the test on MCP-1 and not below 50% in the test on VCAM-1.
As for `O=c1cc(-c2ccc(O)cc2)[nH]c2ccccc12` [EXAMPLE 14, 2-(4-Hydroxy-phenyl)-1H-quinolin-4-one], the inhibition at 50 µM in test [1] is less than 40%; in the test with MCP-1, not below 50%; in the test with VCAM-1 it was not below 50%.
Regarding `O=C1C=C(c2ccc(O)cc2)C(=O)c2ccccc21` [EXAMPLE 20, 2-(4-Hydroxy-phenyl)-[1,4]naphthoquinone], the inhibition at 10 µM in test [1] (10 uM) is less than 40%; in the test on MCP-1, less than 50%; in the test on VCAM-1, not below 50%.
Take `CN(C)Cc1ccc2c(=O)cc(-c3ccc(O)cc3)oc2n1` [EXAMPLE 26, 7-((dimethylamino)methyl-2-(4-hydroxyphenyl)-4H-pyrano[2,3-b]pyridin-4-one dihydrochloride]: the results for the inhibition at 50 µM (in test [1]; with MCP-1; in the test with VCAM-1) were not below 40%, less than 50% and less than 50%, respectively.
As to `CN(C)CCOc1ccc(-c2cc(=O)c3cccnc3o2)cc1` [EXAMPLE 27, 2-(4-(2-(dimethylamino)ethoxy)phenyl)-4H-pyrano[2,3-b]pyridin-4-one dihydrochloride], the results for the inhibition at 50 µM (in test [1]; in the test with MCP-1; with VCAM-1) were not below 40%, less than 50% and less than 50%, respectively.
Consider `O=c1cc(-c2ccncc2)oc2ncccc12` [EXAMPLE 30, 2-(pyridin-4-yl)-4H-pyrano[2,3-b]pyridin-4-one hydrochloride], for which the inhibition at 50 µM was not below 40% in test [1], less than 50% with MCP-1 and less than 50% in the test on VCAM-1.
On to `Cc1cc(-c2cc(=O)c3cccnc3o2)cc(C)c1OCCN1CCOCC1` [EXAMPLE 31, 2-(3,5-dimethyl-4-(2-morpholinoethoxy)phenyl)-4H-pyrano[2,3-b]pyridin-4-one hydrochloride], for which the inhibition at 50 µM in test [1] is not below 40%; in the test on MCP-1, less than 50%; with VCAM-1, not below 50%.
For `Cc1cc(-c2cc(=O)c3cc(CN4CCCC4)cnc3o2)cc(C)c1O` [EXAMPLE 33, 2-(4-hydroxy-3,5-dimethylphenyl)-6-(pyrrolidin-1-ylmethyl)-4H-pyrano[2,3-b]pyridin-4-one dihydrochloride], in that order: not below 40%, not below 50% and less than 50%.
For `COc1cc(OC)c2c(=O)cc(-c3ccncc3)oc2c1` [EXAMPLE 34, 5,7-dimethoxy-2-(pyridin-4-yl)-4H-chromen-4-one hydrochloride], in that order: not below 40%, less than 50% and less than 50%.
For `O=c1cc(-c2ccccc2)oc2ncc(CN3CCCC3)cc12` [EXAMPLE 35, 2-phenyl-6-(pyrrolidin-1-ylmethyl)-4H-pyrano[2,3-b]pyridin-4-one hydrochloride], in that order: not below 40%, less than 50% and less than 50%.
On to `O=c1cc(-c2ccc(F)cc2)oc2ncc(CN3CCCC3)cc12` [EXAMPLE 37, 2-(4-fluorophenyl)-6-(pyrrolidin-1-ylmethyl)-4H-pyrano[2,3-b]pyridin-4-one hydrochloride], for which the inhibition at 50 µM in test [1] was not below 40%; in the test with MCP-1, less than 50%; with VCAM-1 it was not below 50%.
For `Nc1ccc(-c2cc(=O)c3cccnc3o2)cc1` [EXAMPLE 38, 2-(4-aminophenyl)-4H-pyrano[2,3-b]pyridin-4-one hydrochloride], in that order: not below 40%, less than 50% and less than 50%.
For `CC(C)Oc1ccc(-c2cc(=O)c3cc(CN4CCCC4)cnc3o2)cc1` [EXAMPLE 39, 2-(4-isopropoxyphenyl)-6-(pyrrolidin-1-ylmethyl)-4H-pyrano[2,3-b]pyridinone hydrochloride], in that order: not below 40%, not below 50% and not below 50%.
For `Cc1cc(-c2cc3ncccc3c(=O)[nH]2)cc(C)c1O` [EXAMPLE 40, 7-(4-hydroxy-3,5-dimethylphenyl)-1,6-naphthyridin-5(6H)-one hydrochloride], in that order: not below 40%, less than 50% and less than 50%.
Regarding `COc1cc(O)nc2cc(-c3cc(C)c(O)c(C)c3)[nH]c(=O)c12` [EXAMPLE 41, 2-hydroxy-7-(4-hydroxy-3,5-dimethylphenyl)-4-methoxy-1,6-naphthyridin-5(6H)-one dihydrochloride], the inhibition at 50 µM in test [1] is not below 40%; in the test with MCP-1, not below 50%; with VCAM-1, not below 50%.
In the case of `CNc1nc(-c2cc(C)c(O)c(C)c2)cc2ccc(CN3CCN(C)CC3)cc12` [EXAMPLE 43, 2,6-dimethyl-4-(1-(methylamino)-7-((4-methylpiperazin-1-yl)methyl)isoquinolin-3-yl)phenol trihydrochloride], the inhibition at 50 µM in test [1] was not below 40%; in the test with MCP-1, not below 50%; with VCAM-1, not below 50%.
On to `CC(C)(Sc1cc(C(C)(C)C)c(O)c(C(C)(C)C)c1)Sc1cc(C(C)(C)C)c(O)c(C(C)(C)C)c1` [Probucol, probucol, reference compound], for which the figures for the inhibition at 10 µM with MCP-1 and with VCAM-1 were 15% and 19%, respectively.
With `CO[C@H]1C[C@@H]2CC[C@@H](C)[C@@](O)(O2)C(=O)C(=O)N2CCCC[C@H]2C(=O)O[C@H]([C@H](C)C[C@@H]2CC[C@@H](O)[C@H](OC)C2)CC(=O)[C@H](C)/C=C(\C)[C@@H](O)[C@@H](OC)C(=O)[C@H](C)C[C@H](C)/C=C/C=C/C=C/1C` [Rapamycin, rapamycin, reference compound], the inhibition at 50 µM in test [1] came to 43%.
As for `Oc1ccc(C=Cc2cc(O)cc(O)c2)cc1` [Resveratrol, resveratrol, reference compound], the values for the inhibition at 50 µM in the test with MCP-1 and with VCAM-1 were 47% and 54%, respectively.
Turning to `CC(=O)O[C@H]1C(=O)[C@@]2(C)[C@H]([C@H](OC(=O)c3ccccc3)[C@]3(O)C[C@H](OC(=O)[C@H](O)[C@@H](NC(=O)c4ccccc4)c4ccccc4)C(C)=C1C3(C)C)[C@]1(OC(C)=O)CO[C@@H]1C[C@@H]2O` [Taxol, taxol, reference compound], the inhibition at 0.1 µM in test [1] (100 nM) came out at 19%.
